Consider 13 molecules from patent US20090186111A1, “Novel Bacteria and Pharmaceutically Active Products Obtained Therefrom” (priority 2004, published 2009).

This assay concerns S. aureus LSLT1111. The assay can be described thus: Antibiogram of S. aureus LSLT1111.
Regarding `CC1(C)S[C@@H]2[C@H](NC(=O)[C@H](N)c3ccccc3)C(=O)N2[C@H]1C(=O)O` [Ampicillin], the “Diameter of clear area” value came out at 12.6 mm and the Sensitivity to antibiotic result is reported as “Resistant”.
The corresponding values for `CC(=O)OCC1=C(C(=O)O)N2C(=O)[C@@H](NC(=O)Cc3cccs3)[C@H]2SC1` [Cephalothin] are 28.8 mm and “Sensitive”.
On the same counts, the results for `O=C(N[C@H](CO)[C@H](O)c1ccc([N+](=O)[O-])cc1)C(Cl)Cl` [Chloramphenicol] are 18.6 mm and “Sensitive”.
On the same counts, the results for `CC[C@H]1OC(=O)[C@H](C)[C@@H](O[C@H]2C[C@@](C)(OC)[C@@H](O)[C@H](C)O2)[C@H](C)[C@@H](O[C@@H]2O[C@H](C)C[C@H](N(C)C)[C@H]2O)[C@](C)(O)C[C@@H](C)C(=O)[C@H](C)[C@@H](O)[C@]1(C)O` [Erythromycin] are 17.3 mm and “Resistant/Sensitive”.
On to `CCC[C@@H]1C[C@@H](C(=O)N[C@@H]([C@H]2O[C@H](SC)[C@H](O)[C@@H](O)[C@H]2O)[C@@H](C)O)N(C)C1` [Lincomycin], for which the “Diameter of clear area” value is on record as 16.7 mm and the Sensitivity to antibiotic result was “Resistant/Sensitive”.
The corresponding values for `COc1cccc(OC)c1C(=O)N[C@@H]1C(=O)N2[C@@H]1SC(C)(C)[C@@H]2C(=O)O` [Meticillin] are 23.3 mm and “Sensitive”.
The corresponding values for `CN(C)[C@@H]1C(=O)C(C(N)=O)=C(O)[C@@]2(O)C(=O)C3=C(O)c4c(O)cccc4[C@@](C)(O)[C@H]3C[C@@H]12` [Tetracyclin] are 19.8 mm and “Sensitive”.
For `CN[C@H](CC(C)C)C(=O)N[C@H]1C(=O)N[C@@H](CC(N)=O)C(=O)N[C@H]2C(=O)N[C@H]3C(=O)N[C@H](C(=O)N[C@H](C(=O)O)c4cc(O)cc(O)c4-c4cc3ccc4O)[C@H](O)c3ccc(c(Cl)c3)Oc3cc2cc(c3O[C@@H]2O[C@H](CO)[C@@H](O)[C@H](O)[C@H]2O[C@H]2C[C@](C)(N)[C@H](O)[C@H](C)O2)Oc2ccc(cc2Cl)[C@H]1O` [Vancomycin], the “Diameter of clear area” value was 11.9 mm and the Sensitivity to antibiotic entry is recorded as “Sensitive”.
Consider Amox. Clav. ac, for which the “Diameter of clear area” value was 28.0 mm and the Sensitivity to antibiotic entry is reported as “Sensitive”.
The corresponding values for Gentamicin are 16.6 mm and “Sensitive”.
Neomycin: the “Diameter of clear area” value is reported as 14.7 mm and the Sensitivity to antibiotic entry is listed as “Resistant/Sensitive”.
On the same counts, the results for Penicillin are 9.0 mm and “Resistant”.
On the same counts, the results for Sulpha/trimethoprim are 18.8 mm and “Sensitive”.
